Values joined by “and” are separate entries in the source; they are usually repeats but may differ in a detail not shown here. Identical values can stand only once. Like-named read-outs stand apart in the source and are kept apart here.
Columns and labels:
Primary human sebocytes = assay: Sebocyte ATP metabolism luminescence assay (Celltiter-Glo), percent luminescence reduction; type: cell-based; conditions: for % Luminescence Reduction (Repeat 1, 2, 3): niacinamide 0 μM
Procedure: The ability of various combinations of ingredients to increase ATP metabolism is evaluated via a sebocyte assay according to the following protocol. Immortalized human sebaceous gland cell lines (sebocytes) are a well-established model for studying acne. Primary human sebocytes Batch #13140680) were obtained from Celprogen™ and grown according to manufacturer's instructions. The cells were seeded at a concentration of 5000 cells per cm^2 in a tissue culture treated flask and incubated at 37° C. in a humidified incubator in the presence of 5% CO2 (all subsequent incubations were subject to these conditions). At 60-80% confluency, cells were passaged by detaching cells using TrypLE™ Express (Sigma). Cells were seeded in a black 96-well half area plate at a concentration of 5000 cells per well and allowed to equilibrate overnight at 37° C.
[…] Various concentrations of CBD (0 μM, 1 μM, 3 μM, 10 μM, 30 μM), niacinamide (0 μM, 4 μM, 10 μM, 20 μM, 40 μM), and urolithin A (0 μM, 3 μM, 10 μM, 30 μM, 100 μM) were evaluated in triplicate. The ability of each composition to increase ATP metabolism was determined using a luminescence assay (Celltiter-Glo™) according to manufacturer's instructions.
Table 11 reports the percent luminescence reductions for cells treated with each composition compared to cells that are not administered a composition of the disclosure. This value is calculated using the formula: (1−(treatment luminescence/control luminescence))*100. The luminescence measurements in this assay are proportional to the number of metabolically active cells in a sample. Cells that are metabolically active (e.g., have functioning mitochondria) consume ATP and convert luciferin to oxyluciferin.

sebocyte = assay: Sebocyte cell viability / cell death; type: cell-based, human; conditions: L-ergothioneine 1 nM to 100 μM; FIG. 6
Procedure: Sebocytes were incubated with compositions comprising CBD, niacinamide, urolithin A, or combination thereof. Various concentrations of CBD (0 μM, 1 μM, 3 μM, 10 μM, 30 μM), niacinamide (0 μM, 4 μM, 10 μM, 20 μM, 40 μM), and urolithin A (0 μM, 3 μM, 10 μM, 30 μM, 100 μM) were evaluated in triplicate. The ability of each composition to increase ATP metabolism was determined using a luminescence assay (Celltiter-Glo™) according to manufacturer's instructions.
These assays also tested the ability of the antioxidant L-ergothioneine at concentrations ranging from 1 nM to 100 μM to affect skin cell viability and influence mitochondrial function.

With `C=C(C)[C@@H]1CCC(C)=C[C@H]1c1c(O)cc(CCCCC)cc1O` [CBD, cannabidiol] the “% Luminescence Reduction (Repeat 1, 2, 3)” value (“% Luminescence Reduction” below) (Primary human sebocytes; CBD 1 μM, urolithin A 0 μM) was 5% and 9%.

`C[N+](C)(C)[C@@H](Cc1c[nH]c(=S)[nH]1)C(=O)[O-]` [L-ergothioneine] was tested, and the ATP metabolism (Primary human sebocytes; L-ergothioneine 1 nM to 100 μM, FIG. 6) was “retain viability and ATP metabolism” and the cell viability (sebocyte) was “retain viability”.

For `NC(=O)c1cccnc1` [Niacinamide, niacinamide], the “Luminescence Reduction of Niacinamide Alone” value (Primary human sebocytes) was 3.0, the “Luminescence Reduction of Niacinamide Alone” value (Primary human sebocytes; Niacinamide 4.0 μM) was 3.0% and the “Luminescence Reduction of Niacinamide Alone” value (Primary human sebocytes; Niacinamide 10.0 μM) was 35.0%. For the same compound, the “Luminescence Reduction of Niacinamide Alone” value (Primary human sebocytes; Niacinamide 20.0 μM) was 52.0%, the “Luminescence Reduction of Niacinamide Alone” value (Primary human sebocytes; Niacinamide 40.0 μM) was 90.7% and the “Luminescence Reduction of Niacinamide Alone” value (Primary human sebocytes; niacinamide 4.0 μM) was 3.0. For the same compound, the “Luminescence Reduction of Niacinamide Alone” value (Primary human sebocytes; niacinamide 10.0 μM) was 35.0, the “Luminescence Reduction of Niacinamide Alone” value (Primary human sebocytes; niacinamide 20.0 μM) was 52.0 and the “Luminescence Reduction of Niacinamide Alone” value (Primary human sebocytes; niacinamide 40.0 μM) was 90.7.

`O=c1oc2cc(O)ccc2c2ccc(O)cc12` [Urolithin A, 3,8-dihydroxybenzo[c]chromen-6-one] was tested, and the “Luminescence Reduction of Urolithin A Alone” value (Primary human sebocytes; 30 µM) was 16.7%, the “% Luminescence Reduction” value (Primary human sebocytes; CBD 0 μM, urolithin A 30 μM) was 15% and 17% and 18% and the “% Luminescence Reduction” value (Primary human sebocytes; CBD 0 μM, urolithin A 100 μM) was 25% and 35% and 27%. For the same compound, the “Luminescence Reduction of Urolithin A Alone” value (Primary human sebocytes; Urolithin A 3.0 μM) was 18.7%, the “Luminescence Reduction of Urolithin A Alone” value (Primary human sebocytes; Urolithin A 10.0 μM) was 13.3% and the “Luminescence Reduction of Urolithin A Alone” value (Primary human sebocytes; Urolithin A 100.0 μM) was 29.0%.
